Source: US20180155344A1, “TRICYCLIC PIPERIDINE COMPOUNDS” (ACTELION PHARMACEUTICALS LTD, priority 2015, published 2018)

Target: T1, human TPH1 (Homo sapiens, UniProt P17752)
T1 sequence (P17752 1-444): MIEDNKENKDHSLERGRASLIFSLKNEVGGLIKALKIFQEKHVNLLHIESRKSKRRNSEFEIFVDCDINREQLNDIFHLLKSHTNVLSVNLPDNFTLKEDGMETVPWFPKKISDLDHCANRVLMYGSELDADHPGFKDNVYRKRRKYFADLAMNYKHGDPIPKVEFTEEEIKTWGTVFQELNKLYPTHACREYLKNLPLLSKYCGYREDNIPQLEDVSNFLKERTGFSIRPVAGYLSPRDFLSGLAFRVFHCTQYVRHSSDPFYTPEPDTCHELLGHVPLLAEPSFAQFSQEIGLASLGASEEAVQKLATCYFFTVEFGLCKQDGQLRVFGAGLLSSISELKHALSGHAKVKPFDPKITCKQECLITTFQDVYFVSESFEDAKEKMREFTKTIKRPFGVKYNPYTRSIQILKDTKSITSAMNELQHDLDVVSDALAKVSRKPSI
Experiment: biochemical
Procedure, shortened: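 Inhibition is derived from 5-hydroxy-L-tryptophan fluorescence (540 nm emission, 300 nm excitation) after perchloric acid stop, relative to DMSO vehicle. Recombinant full-length human enzyme (40-80 nM) reacts with 40 μM tryptophan plus 100 μM methyltetrahydropterin, pH 7.6 Tris/DTT/catalase, 15° C, 60 min.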

Row | Compound | IC50
1 | CCOc1ccc(C2c3c(nc4cc(C(F)(F)F)ccn34)CCN2C(=O)COc2ccc3ccccc3c2)cc1 (stereo not shown) [Example 3.25.1, 1-(1-(4-ethoxyphenyl)-7-(trifluoromethyl)-3,4-dihydroimidazo[1,2-a:5,4-c′]dipyridin-2(1H)-yl)-2-(naphthalen-2-yloxy)ethan-1-one] | 104 nM
2 | CCOc1ccc(C2c3c(nc4cc(C(F)(F)F)ccn34)CCN2C(=O)COc2ccc(CN3CCOCC3)c(C)c2C)cc1 (stereo not shown) [Example 3.25.3, 2-(2,3-dimethyl-4-(morpholinomethyl)phenoxy)-1-(1-(4-ethoxyphenyl)-7-(trifluoromethyl)-3,4-dihydroimidazo[1,2-a:5,4-c′]dipyridin-2(1H)-yl)ethan-1-one] | 51 nM
3 | O=C(COc1ccc2ccccc2c1)N1CCc2nc3cc(C(F)(F)F)ccn3c2C1c1ccc(OC(F)F)cc1 (stereo not shown) [Example 3.26.1, 1-(1-(4-(difluoromethoxy)phenyl)-7-(trifluoromethyl)-3,4-dihydroimidazo[1,2-a:5,4-c′]dipyridin-2(1H)-yl)-2-(naphthalen-2-yloxy)ethan-1-one] | 120 nM
4 | O=C(COc1ccc(CN2CCOCC2)cc1Cl)N1CCc2nc3cc(C(F)(F)F)ccn3c2C1c1ccc(OC(F)F)cc1 (stereo not shown) [Example 3.26.2, 2-(2-chloro-4-(morpholinomethyl)phenoxy)-1-(1-(4-(difluoromethoxy)phenyl)-7-(trifluoromethyl)-3,4-dihydroimidazo[1,2-a:5,4-c′]dipyridin-2(1H)-yl)ethan-1-one] | 54 nM
5 | O=C(COc1ccc(CN2CCOCC2)cc1Cl)N1CCc2nc3cc(C(F)(F)F)ccn3c2C1c1ccc(OC(F)(F)F)cc1 (stereo not shown) [Example 3.27.1, 2-(2-chloro-4-(morpholinomethyl)phenoxy)-1-(1-(4-(trifluoromethoxy)phenyl)-7-(trifluoromethyl)-3,4-dihydroimidazo[1,2-a:5,4-c′]dipyridin-2(1H)-yl)ethan-1-one] | 135 nM
6 | O=C(COc1ccc2ccccc2c1)N1CCc2nc3cc(C(F)(F)F)ccn3c2C1c1ccc(C(F)(F)F)cc1 (stereo not shown) [Example 3.28.1, 2-(naphthalen-2-yloxy)-1-(7-(trifluoromethyl)-1-(4-(trifluoromethyl)phenyl)-3,4-dihydroimidazo[1,2-a:5,4-c′]dipyridin-2(1H)-yl)ethan-1-one] | 154 nM
7 | O=C(COc1ccc(CN2CCOCC2)cc1Cl)N1CCc2nc3cc(C(F)(F)F)ccn3c2C1c1ccc(C(F)(F)F)cc1 (stereo not shown) [Example 3.28.2, 2-(2-chloro-4-(morpholinomethyl)phenoxy)-1-(7-(trifluoromethyl)-1-(4-(trifluoromethyl)phenyl)-3,4-dihydroimidazo[1,2-a:5,4-c′]dipyridin-2(1H)-yl)ethan-1-one] | 77 nM
8 | O=C(COc1ccc2ccccc2c1)N1CCc2nc3cc(C(F)(F)F)ccn3c2C1c1ccc(Cl)cc1 (stereo not shown) [Example 3.30.1, 1-(1-(4-chlorophenyl)-7-(trifluoromethyl)-3,4-dihydroimidazo[1,2-a:5,4-c′]dipyridin-2(1H)-yl)-2-(naphthalen-2-yloxy)ethan-1-one] | 59 nM
9 | O=C(COc1ccc(CN2CCOCC2)cc1Cl)N1CCc2nc3cc(C(F)(F)F)ccn3c2C1c1ccc(Cl)cc1 (stereo not shown) [Example 3.30.2, 2-(2-chloro-4-(morpholinomethyl)phenoxy)-1-(1-(4-chlorophenyl)-7-(trifluoromethyl)-3,4-dihydroimidazo[1,2-a:5,4-c′]dipyridin-2(1H)-yl)ethan-1-one] | 20 nM
10 | COc1cccc(C2c3c(nc4cc(C(F)(F)F)ccn34)CCN2C(=O)COc2ccc3ccccc3c2)c1 (stereo not shown) [Example 3.32.1, 1-(1-(3-methoxyphenyl)-7-(trifluoromethyl)-3,4-dihydroimidazo[1,2-a:5,4-c′]dipyridin-2(1H)-yl)-2-(naphthalen-2-yloxy)ethan-1-one] | 228 nM
11 | Cc1cc(C2c3c(nc4cc(C(F)(F)F)ccn34)CCN2C(=O)COc2ccc(CN3CCOCC3)cc2Cl)ccc1F (stereo not shown) [Example 3.33.2, 2-(2-chloro-4-(morpholinomethyl)phenoxy)-1-(1-(4-fluoro-3-methylphenyl)-7-(trifluoromethyl)-3,4-dihydroimidazo[1,2-a:5,4-c′]dipyridin-2(1H)-yl)ethan-1-one] | 110 nM
12 | O=C(COc1ccc2ccccc2c1)N1CCc2nc3cc(C(F)(F)F)ccn3c2C1c1ccc(F)c(F)c1 (stereo not shown) [Example 3.34.1, 1-(1-(3,4-difluorophenyl)-7-(trifluoromethyl)-3,4-dihydroimidazo[1,2-a:5,4-c′]dipyridin-2(1H)-yl)-2-(naphthalen-2-yloxy)ethan-1-one] | 486 nM
13 | O=C(COc1ccc(CN2CCOCC2)cc1Cl)N1CCc2nc3cc(C(F)(F)F)ccn3c2C1c1ccc(F)c(F)c1 (stereo not shown) [Example 3.34.2, 2-(2-chloro-4-(morpholinomethyl)phenoxy)-1-(1-(3,4-difluorophenyl)-7-(trifluoromethyl)-3,4-dihydroimidazo[1,2-a:5,4-c′]dipyridin-2(1H)-yl)ethan-1-one] | 242 nM
14 | O=C(COc1ccc2ccccc2c1)N1CCc2nc3cc(C(F)(F)F)ccn3c2C1c1ccccc1F (stereo not shown) [Example 3.35.1, 1-(1-(2-fluorophenyl)-7-(trifluoromethyl)-3,4-dihydroimidazo[1,2-a:5,4-c′]dipyridin-2(1H)-yl)-2-(naphthalen-2-yloxy)ethan-1-one] | 17 nM

Results, then the compound that gave them:

Row | IC50 | Compound
15 | 429 nM | COc1ccc(C2c3c(nc4cc(C(F)(F)F)ccn34)CCN2C(=O)COc2cccnc2Cl)cc1 (stereo not shown) [Example 3.24.2, 2-((2-chloropyridin-3-yl)oxy)-1-(1-(4-methoxyphenyl)-7-(trifluoromethyl)-3,4-dihydroimidazo[1,2-a:5,4-c′]dipyridin-2(1H)-yl)ethan-1-one]
16 | 20 nM | CCOc1ccc(C2c3c(nc4cc(C(F)(F)F)ccn34)CCN2C(=O)COc2ccc(CN3CCOCC3)cc2Cl)cc1 (stereo not shown) [Example 3.25.2, 2-(2-chloro-4-(morpholinomethyl)phenoxy)-1-(1-(4-ethoxyphenyl)-7-(trifluoromethyl)-3,4-dihydroimidazo[1,2-a:5,4-c′]dipyridin-2(1H)-yl)ethan-1-one]
17 | 312 nM | O=C(COc1ccc2ccccc2c1)N1CCc2nc3cc(C(F)(F)F)ccn3c2C1c1ccc(F)cc1 (stereo not shown) [Example 3.29.1, 1-(1-(4-fluorophenyl)-7-(trifluoromethyl)-3,4-dihydroimidazo[1,2-a:5,4-c′]dipyridin-2(1H)-yl)-2-(naphthalen-2-yloxy)ethan-1-one]
18 | 202 nM | O=C(COc1ccc(CN2CCOCC2)cc1Cl)N1CCc2nc3cc(C(F)(F)F)ccn3c2C1c1ccc(F)cc1 (stereo not shown) [Example 3.29.2, 2-(2-chloro-4-(morpholinomethyl)phenoxy)-1-(1-(4-fluorophenyl)-7-(trifluoromethyl)-3,4-dihydroimidazo[1,2-a:5,4-c′]dipyridin-2(1H)-yl)ethan-1-one]
19 | 127 nM | Cc1cc(C2c3c(nc4cc(C(F)(F)F)ccn34)CCN2C(=O)COc2ccc3ccccc3c2)ccc1F (stereo not shown) [Example 3.33.1, 1-(1-(4-fluoro-3-methylphenyl)-7-(trifluoromethyl)-3,4-dihydroimidazo[1,2-a:5,4-c′]dipyridin-2(1H)-yl)-2-(naphthalen-2-yloxy)ethan-1-one]
20 | 16 nM | O=C(COc1ccc(CN2CCOCC2)cc1Cl)N1CCc2nc3cc(C(F)(F)F)ccn3c2C1c1ccccc1F (stereo not shown) [Example 3.35.2, 2-(2-chloro-4-(morpholinomethyl)phenoxy)-1-(1-(2-fluorophenyl)-7-(trifluoromethyl)-3,4-dihydroimidazo[1,2-a:5,4-c′]dipyridin-2(1H)-yl)ethan-1-one]
21 | 338 nM | Cn1nc(OCC(=O)N2CCc3nc4cc(C(F)(F)F)ccn4c3C2c2ccccc2F)c(Cl)c1C(F)(F)F (stereo not shown) [Example 3.35.3, 2-((4-chloro-1-methyl-5-(trifluoromethyl)-1H-pyrazol-3-yl)oxy)-1-(1-(2-fluorophenyl)-7-(trifluoromethyl)-3,4-dihydroimidazo[1,2-a:5,4-c′]dipyridin-2(1H)-yl)ethan-1-one]
22 | 208 nM | O=C(COc1ccc2ccccc2c1)N1CCc2nc3cc(C(F)(F)F)ccn3c2C1c1cccnc1 (stereo not shown) [Example 3.36.1, 2-(naphthalen-2-yloxy)-1-(1-(pyridin-3-yl)-7-(trifluoromethyl)-3,4-dihydroimidazo[1,2-a:5,4-c′]dipyridin-2(1H)-yl)ethan-1-one]
23 | 488 nM | O=C(COc1ccc(CN2CCOCC2)cc1Cl)N1CCc2nc3cc(C(F)(F)F)ccn3c2C1c1cccnc1 (stereo not shown) [Example 3.36.2, 2-(2-chloro-4-(morpholinomethyl)phenoxy)-1-(1-(pyridin-3-yl)-7-(trifluoromethyl)-3,4-dihydroimidazo[1,2-a:5,4-c′]dipyridin-2(1H)-yl)ethan-1-one]
24 | 50 nM | O=C(COc1ccc(CN2CCOCC2)cc1Cl)N1CCc2nc3cc(C(F)(F)F)ccn3c2C1c1ccc(Cl)nc1 (stereo not shown) [Example 3.37.1, 2-(2-chloro-4-(morpholinomethyl)phenoxy)-1-(1-(6-chloropyridin-3-yl)-7-(trifluoromethyl)-3,4-dihydroimidazo[1,2-a:5,4-c′]dipyridin-2(1H)-yl)ethan-1-one]
25 | 57 nM | O=C(COc1ccc2ccccc2c1)N1CCc2nc3cc(C(F)(F)F)ccn3c2C1c1ccc(Cl)nc1 (stereo not shown) [Example 3.37.2, 1-(1-(6-chloropyridin-3-yl)-7-(trifluoromethyl)-3,4-dihydroimidazo[1,2-a:5,4-c′]dipyridin-2(1H)-yl)-2-(naphthalen-2-yloxy)ethan-1-one]
